In patent EP2050747A1, “Dimers of harmol or of its derivatives and uses thereof” (BioAlliance Pharma, priority 2007, dated 2009):

Legend:
NIH 3T3 EF cells = experiment: Rescue of F-actin network, FITC-phalloidin fluorescence microscopy; assay type: cell-based; conditions: compared with the concentrations used in harmol dimers test
Procedure: Malignant NIH 3T3 EF cells were seeded onto glass cover slips at a density of 2000 cells per cm^2. The next day, tested molecules were applied to NIH 3T3 EF cells at various non cytotoxic concentrations. Three days later, cells were fixed for 10 min in PBS containing 3.7 % formaldehyde at 4°C before examination with a fluorescence microscope. The formaldehyde solution was neutralized with 50 mM NH4Cl. Permeabilisation was carried out for 4 min with 0.4% Triton X-100 in PBS. Cells were incubated for 1 h at room temperature with blocking buffer (3% bovine serum albumin in PBS) and then for 1 h with FITC-phalloidin (Sigma) which stabilizes structures by inhibiting phosphate release from ADP-Pi-actin filaments and allows visualization of actin filaments by fluorescence microscopy. The cover slips were mounted on microscope slides using a solution of glycerol 50%, DABCO 2.5% in PBS as embedding medium.

NIH 3T3 EF = experiment: Cloning assay, colony formation in semi solid medium (methylcellulose); assay type: cell-based; conditions: in words
Procedure: (§1) Cells were embedded in complete culture medium supplemented with 0,8% methylcellulose (Methocel MC4000, Sigma), seeded in triplicate into 35-mm dishes (Greiner Bio-one Ref 627102, Dominique Dutscher) and incubated at 37 °C in a humidified 5% CO2 atmosphere.
(§2) The number of cells seeded was 1000 cells per dish. After one week (B16F10 cell line) to 3 weeks (NIH 3T3 EF cell line), macroscopic clones were counted.

F-actin = experiment: Actin dynamics, fluorescence anisotropy assay in tumor cell cytosolic fraction; assay type: biochemical
Procedure: Actin dynamics have been quantified in tumor cell cytosolic fraction using the fluorescence anisotropy assay which gains access to rate constant of F-actin elongation (kobs) and steady state concentration of F-actin (Δ mA max).
All reactions were carried out at 22°C and fluorescence anisotropy signal was recovered at 520 nm with excitation at 490 nm in a Beacon 2000 (Panvera). Alexa 488 actin (Molecular Probes) was centrifuged at 35 000 rpm for 2 h at 4°C to sediment residual actin polymers in a Beckman L5-50B ultracentrifuge. […] 80% of the supernatant was withdrawn; the concentration was defined through fluorescence measurements (excitation at 490 nm and signal recovering at 520 nm). The ultracentrifuged actin concentration was calculated using the non ultracentrifuged Alexa 488 actin as a standard. The supernatant was aliquoted, frozen in liquid nitrogen and stored at -80°C.
Before experiment, an aliquot of ultracentrifuged Alexa 488 actin was diluted to a concentration of 1 mg/ml in G buffer (5 mM Tris pH 8.1, 2 mM CaCl2, 0.2 mM DTT, 0.2 mM ATP). 3 µl of diluted Alexa 488 actin was mixed in 168 µl of G buffer and actin monomers anisotropy was measured before the addition of 4 µl of polymerisation buffer (2.5 M KCI, 50 mM MgCl2, 25 mM ATP), 5 µl of G buffer in the presence or in the absence of the chemical molecule and 20 µl cellular extract of normal NIH 3T3 cells or malignant NIH 3T3 EF cells at 2 mg/ml. The final concentration of Alexa 488 actin was 4 nM. The ratio of unlabelled to labelled actin was about 140/4 nM. Measurements were made each 10 sec for 200 sec. Actin monomers anisotropy value was subtracted, yielding the anisotropy enhancement (Δ mA). The data were fitted with the equation Y= Ymax . [1- exp(- K.X)]. The curves start at zero and ascend to Ymax that corresponds to the steady state anisotropy value (Δ mA eq), with a rate constant K. Y is anisotropy values of which monomers anisotropy is substracted and X is the time (Assessment of cellular actin dynamics by measurement of fluorescence anisotropy. Anal Biochem. 2007 Aug 1;367(1):95-103. Epub 2007 Apr 5. Spitz et al.).

[1] = system: malignant NIH 3T3 EF cells; experiment: Wound healing assay (cell motility); assay type: cell-based; conditions: NIH 3T3 EF cells, 5 µM
Procedure: Harmol dimers have been tested in a cell motility assay: the behaviour of tumoral cells treated by these dimers was compared with non-treated tumoral cells in a wound healing assay. Wound healing assay was performed to evaluate the effect of tested molecules on motility of malignant NIH 3T3 EF cells and melanoma cell line B16F10. About 100 000-200 000 cells were seeded in a 6-well culture plate and the tested molecule was added 24 hours later. Cells were grown for 3 days to confluence about 90-95% and small scratch-wounds (1 mm width) were made with a pipette tip. Cell debris were removed, then the cultures were incubated in complete medium for 10 h in the presence of the same concentration of the tested molecule. Then, the cells were fixed for 10 min in PBS containing 3.7% formaldehyde at 4°C.

B16F10 tumor = experiment: In vivo tumorigenicity assay, subcutaneous B16F10 tumor growth; design: species or system C57BU6 mice
Procedure: Female 6-8 week-old C57BU6 mice were provided by Harlan (Gannat, France).
Animals were housed in air-conditioned atmosphere, given food and water in standard conditions. One million B16F10 cells in 0.1 ml PBS were injected subcutaneously into the right flank of mice. Seven days after cells inoculation, it was possible to measure tumor volume (day 0). Thereafter, before drug administration, female C57BU6 mice were randomized to form 2 groups. […]
B16F10 tumor development was monitored for 2 weeks. The tumor size was estimated every fourth day by measuring the diameters of the tumors in two perpendicular dimensions using callipers. The volume of tumor (V) was calculated using the formula, V = 2W(U2)2 , where L and W were respectively the length and the width of tumor.
In vivo tumorigenicity assay was studied with harmine. […] In parallel, control mice were treated by one daily oral route administration of the vehicle.

monoamine oxydase = conditions: cited from earlier work
[2] = system: cyclin-dependent kinases (CDKs); conditions: cited from earlier work
B16F10 = experiment: Cloning assay, colony formation in semi solid medium (methylcellulose); assay type: cell-based, Murine
Procedure: as §1, §2

human tumor cell lines = conditions: cited from earlier work

For COc1ccc2c(c1)[nH]c1c(C)nccc12 [harmine, reference compound], the “modification in actin cytoskeleton network” value (NIH 3T3 EF cells) was “higher concentrations”, the “concentration at which inhibition of NIH 3T3 EF colony formation was observed” value (NIH 3T3 EF) was “micromolar concentration” and the “F actin elongation rate constant compared with NIH 3T3 cytosolic fraction” value (F-actin; NIH 3T3 EF cytosolic fraction, BA016FZ527 at 10 µM, harmine concentration not given) was “lower”. For the same compound, the “F actin steady state value (Δ mA max), effect in words” value (F-actin; added to assay medium, NIH 3T3 EF cytosolic fraction or lysate, versus untreated, harmol at 10 µM) was “increase”, the “F actin elongation rate constant (Kobs), effect in words” value (F-actin; added to assay medium, NIH 3T3 EF cytosolic fraction, versus untreated) was “increase” and the “inhibition of migration compared with the harmol dimers” value [1] was “lower inhibition of migration”. The tumoral growth inhibition (B16F10 tumor; daily per os 100 mg/kg (2 x 50 mg/kg) for 15 days) was “Any tumoral growth inhibition”, the tumoral growth inhibition (B16F10 tumor; daily per os 200 mg/Kg (2 x 100 mg/kg) for 15 days) was “Any tumoral growth inhibition” and the monoamine oxydase inhibition (monoamine oxydase) was “monoamine oxydase inhibitor”. The “inhibition of cyclin-dependent kinases (CDKs)” value [2] was “selective inhibitor”, the “concentration at which inhibition of B16F10 colony formation was observed” value (B16F10) was “about 1 µM” and the “cytotoxicity against human tumor cell lines” value (human tumor cell lines) was “strong cytotoxicity”.
